Measured values from ChEMBL document CHEMBL1201862, “PubChem BioAssay data set” (2004).
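Tested at 5 concentrations; 48 h exposure; 96-well plates; endpoints linearly interpolated, else capped at highest concentration. GI50 marks 50% less growth.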 The source made the active and inactive calls. Cut-off read from the data, not from the text of the source: active = GI50 up to about 1.1 µM and inactive = higher.

Tests used:
Experiment in all cases: NCI anticancer screen, dose series, 48 h
[1] = system: OVCAR-4
[2] = system: T47D
[3] = system: UACC-257
[4] = system: 786-0
[5] = system: SF-268
[6] = system: EKVX
[7] = system: CAKI-1
[8] = system: UO-31
[9] = system: SN12C
[10] = system: HOP-92
[11] = system: MCF7
[12] = system: NCI-H226
[13] = system: SNB-75
[14] = system: TK-10
[15] = system: MDA-MB-435
[16] = system: OVCAR-3
[17] = system: K562
[18] = system: Hs-578T
[19] = system: LOX IMVI

| SMILES | GI50 [1] | GI50 [2] | GI50 [3] | GI50 [4] | GI50 [5] | GI50 [6] | GI50 [7] | GI50 [8] | GI50 [9] | GI50 [10] | GI50 [11] | GI50 [12] | GI50 [13] | GI50 [14] | GI50 [15] | GI50 [16] | GI50 [17] | GI50 [18] | GI50 [19] |
| --- | --- | --- | --- | --- | --- | --- | --- | --- | --- | --- | --- | --- | --- | --- | --- | --- | --- | --- | --- |
| COc1ccc2[nH]c(C(O)(Cc3cccnc3)Cc3cccnc3)cc2c1 | > 100 µM (inactive) | > 100 µM (inactive) | > 100 µM (inactive) | > 100 µM (inactive) | > 100 µM (inactive) | > 100 µM (inactive) | > 100 µM (inactive) | > 100 µM (inactive) | > 100 µM (inactive) | > 100 µM (inactive) | > 100 µM (inactive) | > 100 µM (inactive) | > 100 µM (inactive) | > 100 µM (inactive) | > 100 µM (inactive) | > 100 µM (inactive) | > 100 µM (inactive) | > 100 µM (inactive) | – |
| O=C1Cc2c([nH]c3ccccc23)C2(CC3CCCCN13)OCCO2 (stereo unspecified) | > 100 µM (inactive) | > 100 µM (inactive) | > 100 µM (inactive) | > 100 µM (inactive) | > 100 µM (inactive) | > 100 µM (inactive) | > 100 µM (inactive) | > 100 µM (inactive) | > 100 µM (inactive) | 34.2 µM (inactive) | > 100 µM (inactive) | > 100 µM (inactive) | 62.8 µM (inactive) | > 100 µM (inactive) | > 100 µM (inactive) | > 100 µM (inactive) | – | 89.9 µM (inactive) | – |
| COc1cc2c(cc1OCCCC(=O)Nc1cc(C(=O)NCCCN(C)C)n(C)n1)N=CC1CCCN1C2=O (stereo unspecified) | 6.44 µM (inactive) | 9.66 µM (inactive) | 7.45 µM (inactive) | 6.46 µM (inactive) | 16.2 µM (inactive) | > 47.4 µM (inactive) | 21.6 µM (inactive) | 8.65 µM (inactive) | 7.11 µM (inactive) | 6.56 µM (inactive) | 10.1 µM (inactive) | – | 7.85 µM (inactive) | 7.4 µM (inactive) | 40.9 µM (inactive) | 27.5 µM (inactive) | 0.123 µM (active) | 11 µM (inactive) | 7.71 µM (inactive) |
| CCNC(=S)N/N=C/c1cc(OC)ccc1O | 33.7 µM (inactive) | 24.3 µM (inactive) | > 100 µM (inactive) | 67.1 µM (inactive) | 8.43 µM (inactive) | 89.1 µM (inactive) | – | 7.01 µM (inactive) | > 100 µM (inactive) | 45.1 µM (inactive) | 5.74 µM (inactive) | > 100 µM (inactive) | > 100 µM (inactive) | > 100 µM (inactive) | 64.6 µM (inactive) | 6.38 µM (inactive) | 97.9 µM (inactive) | > 100 µM (inactive) | 99.3 µM (inactive) |
| COc1ccccc1NC(=S)N/N=C(/C)c1ccccn1 | 0.184 µM (active) | < 0.01 µM (active) | < 0.01 µM (active) | < 0.0123 µM (active) | < 0.0124 µM (active) | 0.268 µM (active) | 0.0132 µM (active) | 1.37 µM (inactive) | 0.178 µM (active) | 6.93 µM (inactive) | < 0.01 µM (active) | – | 1.45 µM (inactive) | 0.0644 µM (active) | 0.968 µM (active) | < 0.01 µM (active) | < 0.01 µM (active) | > 37.5 µM (inactive) | < 0.01 µM (active) |
| CC1=NN(C(=O)CC(=O)Nc2ccccc2)C(=O)C1/N=N/c1ccc(C(=O)O)cc1 (stereo unspecified) | > 100 µM (inactive) | 62.7 µM (inactive) | > 100 µM (inactive) | > 100 µM (inactive) | 77.8 µM (inactive) | > 100 µM (inactive) | > 100 µM (inactive) | > 100 µM (inactive) | > 100 µM (inactive) | 22.1 µM (inactive) | > 100 µM (inactive) | – | > 100 µM (inactive) | > 100 µM (inactive) | > 100 µM (inactive) | > 100 µM (inactive) | > 100 µM (inactive) | 78.7 µM (inactive) | > 100 µM (inactive) |
| Cc1ccc(CNc2ccc(Br)cc2)cc1 | – | 29.5 µM (inactive) | 24.9 µM (inactive) | 48.3 µM (inactive) | 31.9 µM (inactive) | 25.6 µM (inactive) | 31.6 µM (inactive) | 13.5 µM (inactive) | 20.9 µM (inactive) | 15 µM (inactive) | 18.7 µM (inactive) | 60 µM (inactive) | 37.3 µM (inactive) | 40 µM (inactive) | 22.8 µM (inactive) | 34.8 µM (inactive) | 22.9 µM (inactive) | 70.6 µM (inactive) | 2.01 µM (inactive) |
| CC(=O)C(C(=O)c1ccc(C)cc1)[C@@H]1OC(C)(C)O[C@@H]1[C@H]1COC(C)(C)O1 (stereo partly specified) | 4 µM (inactive) | 11.4 µM (inactive) | 12.4 µM (inactive) | 6.4 µM (inactive) | 9.23 µM (inactive) | 23.9 µM (inactive) | 21.5 µM (inactive) | 12.7 µM (inactive) | 3.97 µM (inactive) | 35.2 µM (inactive) | 3.48 µM (inactive) | – | 13.4 µM (inactive) | 30.3 µM (inactive) | 9.75 µM (inactive) | 7.66 µM (inactive) | 2.05 µM (inactive) | 3.84 µM (inactive) | 6.43 µM (inactive) |
| CCOC(=O)C(C)c1nc2cc(N3CCOCC3)c(F)cc2[nH]c1=O (stereo unspecified) | > 100 µM (inactive) | > 100 µM (inactive) | > 100 µM (inactive) | > 100 µM (inactive) | > 100 µM (inactive) | > 100 µM (inactive) | > 100 µM (inactive) | > 100 µM (inactive) | > 100 µM (inactive) | > 100 µM (inactive) | > 100 µM (inactive) | > 100 µM (inactive) | > 100 µM (inactive) | > 100 µM (inactive) | > 100 µM (inactive) | > 100 µM (inactive) | > 100 µM (inactive) | > 100 µM (inactive) | – |
| Cn1c2ccccc2c(=S)c2cc(NC(=O)CCCCC(=O)Nc3ccc4c(c3)c(=S)c3ccccc3n4C)ccc21 | – | > 100 µM (inactive) | > 100 µM (inactive) | 72.1 µM (inactive) | > 100 µM (inactive) | > 100 µM (inactive) | > 100 µM (inactive) | > 100 µM (inactive) | > 100 µM (inactive) | > 100 µM (inactive) | > 100 µM (inactive) | > 100 µM (inactive) | 54 µM (inactive) | > 100 µM (inactive) | > 100 µM (inactive) | > 100 µM (inactive) | > 100 µM (inactive) | > 100 µM (inactive) | > 100 µM (inactive) |
| CCCC(Sc1nc(N)nc2nc[nH]c12)C(=O)O (stereo unspecified) | > 100 µM (inactive) | > 100 µM (inactive) | > 100 µM (inactive) | 92.5 µM (inactive) | 46.8 µM (inactive) | – | 41 µM (inactive) | 65.2 µM (inactive) | > 100 µM (inactive) | > 100 µM (inactive) | 62.4 µM (inactive) | > 100 µM (inactive) | > 100 µM (inactive) | 26.6 µM (inactive) | 74.8 µM (inactive) | > 100 µM (inactive) | 37.7 µM (inactive) | > 100 µM (inactive) | 34.5 µM (inactive) |
| Cc1cccc2c(=O)c3cccc(CC(=O)O)c3oc12 | > 100 µM (inactive) | > 100 µM (inactive) | > 100 µM (inactive) | > 100 µM (inactive) | > 100 µM (inactive) | > 100 µM (inactive) | > 100 µM (inactive) | > 100 µM (inactive) | > 100 µM (inactive) | > 100 µM (inactive) | > 100 µM (inactive) | > 100 µM (inactive) | – | > 100 µM (inactive) | > 100 µM (inactive) | > 100 µM (inactive) | > 100 µM (inactive) | > 100 µM (inactive) | > 100 µM (inactive) |
| c1ccc([P+](CCSCCSCC[P+](c2ccccc2)(c2ccccc2)c2ccccc2)(c2ccccc2)c2ccccc2)cc1 | > 100 µM (inactive) | > 100 µM (inactive) | > 100 µM (inactive) | > 100 µM (inactive) | > 100 µM (inactive) | > 100 µM (inactive) | – | > 100 µM (inactive) | > 100 µM (inactive) | > 100 µM (inactive) | 40.5 µM (inactive) | > 100 µM (inactive) | > 100 µM (inactive) | > 100 µM (inactive) | > 100 µM (inactive) | > 100 µM (inactive) | 53.5 µM (inactive) | > 100 µM (inactive) | – |
| O=C(O)c1cc(NCc2cc(O)ccc2O)ccc1O [LAVENDUSTIN C] | > 100 µM (inactive) | 35.6 µM (inactive) | > 100 µM (inactive) | 45.3 µM (inactive) | > 100 µM (inactive) | > 100 µM (inactive) | > 100 µM (inactive) | 67.1 µM (inactive) | > 100 µM (inactive) | > 100 µM (inactive) | > 100 µM (inactive) | > 100 µM (inactive) | > 100 µM (inactive) | > 100 µM (inactive) | 27 µM (inactive) | > 100 µM (inactive) | – | > 100 µM (inactive) | – |
| O=c1c(O)c(-c2cc(O)c(O)c(O)c2)oc2cc(O)cc(O)c12 [MYRICETIN] | 16.3 µM (inactive) | > 100 µM (inactive) | 29.2 µM (inactive) | 20.1 µM (inactive) | 44.2 µM (inactive) | – | 23.6 µM (inactive) | 90.8 µM (inactive) | – | 46.7 µM (inactive) | 18.5 µM (inactive) | 25.6 µM (inactive) | 64.4 µM (inactive) | > 100 µM (inactive) | 17.7 µM (inactive) | 30.6 µM (inactive) | 35.6 µM (inactive) | 40.9 µM (inactive) | 13.6 µM (inactive) |
